How the values were obtained:
Assay type in all cases: in vivo, human
[1] = system: patients with irritable bowel syndrome (IBS); assay: Abdominal discomfort score in patients with irritable bowel syndrome; conditions: for Abdominal discomfort score, Mean ± SD: IBS patients
Procedure: (§1) Patients with irritable bowel syndrome (IBS) were randomly allocated to the following two treatment groups. • Group 1: Test substance (13,14-dihydro-15-keto-16,16-difluoro-PGE1) 48 μg total (24 μg/breakfast+24 μg/dinner) • Group 2: Matching placebo (placebo/breakfast+placebo/dinner)
Each group underwent two weeks washout period and then began to administer oral test substance (capsules) or placebo (capsules) daily for 4 weeks. Test substance or placebo was taken two times a day (b.i.d) at breakfast with food and at least 8 ounces of water and at dinner with food and at least 8 ounces of water. Patients were asked to evaluate abdominal discomfort upon waking in the morning, using a 5-point scale (Score: 0=absent, 1=mild, 2=moderate, 3=severe, 4=very severe) at 4 weeks after the initiation of the treatments.

[2] = system: patients with occasional constipation; assay: Abdominal discomfort score in patients with occasional constipation; conditions: for Abdominal discomfort score, Mean ± SD: patients with constipation, oral capsules 48 μg total daily (24 μg b.i.d.), 5-point scale 0-4, p < 0.05 vs placebo
Procedure: Patients with occasional constipation were randomly allocated to the following two treatment groups. • Group 1: Test substance (13,14-dihydro-15-keto-16,16-difluoro-PGE1) 48 μg total (24 μg/breakfast+24 μg/dinner) • Group 2: Matching placebo (placebo/breakfast+placebo/dinner) Each group underwent two weeks washout period and then began to administer oral test substance (capsules) or placebo (capsules) daily for 4 weeks. During the washout period, the patient's bowel habit was documented to confirm the existence of constipation. Constipation is defined as, on average, less than three spontaneous bowel movements per week. All existing laxative medication was withdrawn at the start of the washout period and the patients were instructed not to change their diet or lifestyle during the study.
Test substance or placebo was taken orally for a total treatment period of 4 weeks; it was taken two times a day (b.i.d) at breakfast with food and at least 8 ounces of water and at dinner with food and at least 8 ounces of water. […]

[3] = system: patients with irritable bowel syndrome (IBS); assay: Abdominal bloating score in patients with irritable bowel syndrome; conditions: for Abdominal bloating score, Mean ± SD: IBS patients
Procedure: as §1
Each group underwent two weeks washout period and then began to administer oral test substance (capsules) or placebo (capsules) daily for 4 weeks. Test substance or placebo was taken two times a day (b.i.d) at breakfast with food and at least 8 ounces of water and at dinner with food and at least 8 ounces of water. The patients were asked to evaluate abdominal bloating upon waking in the morning, using a 5-point scale (Score: 0=absent, 1=mild, 2=moderate, 3=severe, 4=very severe) at 4 weeks after the initiation of the treatments.

[4] = system: patients with irritable bowel syndrome (IBS) exhibiting dyschezia; assay: Spontaneous bowel movement frequency in patients with IBS exhibiting dyschezia; conditions: for Spontaneous Bowel Movement Frequency Rates, Mean ± SD: IBS patients exhibiting dyschezia
Procedure: Each group underwent two weeks washout period and then began to administer oral test substance (capsules) or placebo (capsules) daily for 4 weeks. Test substance or placebo was taken two times a day (b.i.d) at breakfast with food and at least 8 ounces of water and at dinner with food and at least 8 ounces of water. After 3 consecutive days of not having spontaneous bowel movement, the investigator could prescribe to the patient 10 mg bisacodyl suppository as a rescue medication. If this was not effective, Fleet® enema could be used. During the study period, each patient documented bowel activity. A spontaneous bowel movement was defined as any bowel movement except for that occurred within 24 hours after the rescue medication. Frequency of spontaneous bowel movements at Baseline, Weeks 1, 2, 3 and 4 were analyzed.

[5] = Baseline, 5-point scale 0=absent to 4=very severe
[6] = Week 4, oral capsules 48 μg total daily (24 μg b.i.d.), 5-point scale 0-4, p < 0.01 vs placebo
[7] = oral 48 μg total daily for 4 weeks

## CCCCC(F)(F)C(=O)CCC1C(O)CC(=O)C1CCCCCCC(=O)O (stereo not shown) [Test Substance, 13,14-dihydro-15-keto-16,16-difluoro-PGE1]
[1]; [5]
  Abdominal discomfort score, Mean ± SD: 2.25 ± 0.803
[1]; [6]
  Abdominal discomfort score, Mean ± SD: 1.48 ± 1.029
[1]; [7]
  Effect on abdominal discomfort in patients with IBS: significantly improved the abdominal discomfort
[2]; Week 2
  Abdominal discomfort score, Mean ± SD: 1.09 ± 1.047 (116)
[2]; Week 3
  Abdominal discomfort score, Mean ± SD: 1.27 ± 1.057 (117)
[2]; Week 4
  Abdominal discomfort score, Mean ± SD: 1.22 ± 1.060 (117)
[2]; [7]
  Effect on abdominal discomfort in patients with constipation: significantly improved the abdominal discomfort
[3]; [5]
  Abdominal bloating score, Mean ± SD: 2.50 ± 0.916 (32)
[3]; [6]
  Abdominal bloating score, Mean ± SD: 1.74 ± 0.999 (31)
[3]; [7]
  Effect on abdominal bloating in patients with IBS: significantly improved the abdominal bloating
[4]; Baseline
  Spontaneous Bowel Movement Frequency Rates, Mean ± SD: 1.43 ± 0.773 (32)
[4]; Week 1, oral capsules 48 μg total daily (24 μg b.i.d.), p < 0.01 vs placebo
  Spontaneous Bowel Movement Frequency Rates, Mean ± SD: 6.50 ± 4.108 (32)
[4]; Week 2, oral capsules 48 μg total daily (24 μg b.i.d.), p < 0.01 vs placebo
  Spontaneous Bowel Movement Frequency Rates, Mean ± SD: 5.58 ± 4.003 (32)
[4]; Week 3, oral capsules 48 μg total daily (24 μg b.i.d.), p < 0.01 vs placebo
  Spontaneous Bowel Movement Frequency Rates, Mean ± SD: 5.93 ± 4.775 (32)
[4]; Week 4, oral capsules 48 μg total daily (24 μg b.i.d.), p < 0.05 vs placebo
  Spontaneous Bowel Movement Frequency Rates, Mean ± SD: 5.17 ± 4.333 (32)
[4]; [7]
  Effect on spontaneous bowel movement frequency in patients with IBS exhibiting dyschezia: significantly improved the spontaneous bowel movement frequency

Reference: patent US7795312B2, “Method for treating abdominal discomfort” (Sucampo AG, priority 2002, dated 2010)
